The test system of series [1] is Murine pulmonary adenocarcinoma Madison 109 (M109). The series can be described thus: Antitumoral activity in murine pulmonary carcinoma model M109. The conditions noted are these: qdx5x3w; for TVI %: 2 days after final administration. Format: in vivo, BALB/c mouse. As to the method:
Murine pulmonary adenocarcinoma Madison 109 cells (M109) were maintained by s.c. passage of tumor fragments. The day of inoculation, the cell suspension was injected i.m. in the rear left limb of a 20 g male BALB/c mouse at a density of 3×10^5 cells/mouse. 3LL murine Lewis lung carcinoma was routinely maintained by i.m. passages (every 10-14 days) of 1×10^5 cells/mouse in C57BL/6J mice. For antitumor activity experiments, tumors were excised from donor mice and after mechanical desegregation and enzymatic digestion tumor cell viability was assessed by the trypan blue dye exclusion test. Then, 1×10^5 cells/100 μl/mouse were injected i.m. into the right hind leg muscle of C57BL/6J mice.
Tumor dimension measurements were performed using a digital calliper (Vernier Caliper) from the day in which the mass became measurable, twice weekly. The tumor mass was assessed from the size of the two principal dimensions (length and breadth), expressed in mm, applying the formula (length×breadth^2)/2 that is, the tumor volume in mm3. For every experimental group the percentage of inhibition of tumor volume (TVI %) was calculated, with respect to that of the control that is (100−(T/C %). TVI was evaluated 2 days after the final administration of ST1926.
The mean survival time (MST) was also measured and the increase in mean life-span expressed as ILS % (increase of life span) calculated as (MSTT/MSTC)×100−100.
The comparison between the values of TVI and of survival time, obtained for each group were performed with the non parametric Mann Whitney test for non paired data, using the Instat software from GraphPad inc.
The ST1926 solution was prepared immediately before use and solubilised in cremophor:ethanol 1:1 and subsequently diluted 1:4 in buffered saline solution. The treatments of the animals were carried out in a volume of 10 ml/kg. The treatment scheme for ST1926 at different doses was for 5 consecutive days (qdx5), beginning 1 day after the inoculation with the tumoral cells and was repeated for 3 cycles.
The mice (8 for each group) were weighed prior to each treatment, firstly, so as to be able to administer the correct quantity of substance, based on the eventual variations in weight observed throughout the period of drug administration, and also to be able to register the maximum weight loss throughout the treatment (BWL % max).

Series [2] deals with Human colon adenocarcinoma LoVo. The series can be described thus: Cytotoxicity test (sulphorodamine B), LoVo. Format: cell-based. The conditions noted are these: 24 h incubation, survival 48 h after removal, read-out: IC50. The text has this:
Different cell lines deriving from solid tumors were also used. • 1. Human prostate carcinoma PC3 and DU145. These cell lines were maintained in RPMI 1640 medium containing 10% FCS, 1% sodium pyruvate and 1% glutamine; • 2. Human colon adenocarcinoma LoVo. This cell line was maintained in HAM's F-12 medium, containing 10% FCS and 1% glutamine. • 3. Human ovarian carcinoma such as A2780 and A2780/Dx, sensitive and resistant to drugs, respectively (doxorubicin, taxol, etoposide, vincristine); IGROV-1 and IGROV-1/Pt, sensitive and resistant to platinum-based chemotherapy, respectively, were maintained in RPMI 1640 medium containing 10% FCS, 1% sodium pyruvate and 1% glutamine; • 4. Human melanoma MeWo and MeS 2.21, glioblastoma GBM, no small cell lung carcinomas A431, NCI—H460, osteosarcomas SAOS and U2OS were maintained in RPMI 1640 medium containing 10% FCS, 1% sodium pyruvate and 1% glutamine.
The cytotoxicity tests were carried out using NB4 or HL-60 cells in suspension (10000/well). The cells were seeded in a volume of 250 μl in 96 well plates and incubated for 24 hours at 37° C. […] The optical density was measured using a Multiskan spectrophotometer at 540 nm. […]
Cell survival was determined by incubation with ST1926 for 24 hours, 48 hours after the removal of the compound. […]

The structures appear in SMILES notation.

Usually IC50 stands for the concentration that gives 50% inhibition. Take `O=C(O)/C=C/c1ccc(-c2ccc(O)c(C34CC5CC(CC(C5)C3)C4)c2)cc1` [ST1926, E-4-(3-(1-adamantyl)-4-hydroxyphenyl)cinnamic acid]: in series [1] (M109, 10 mg/kg i.p.), the “BWL % Max” value turned out to be 9%, the ILS % is on record as 27%, the “MST (range days)” value is “*28 (25-35) days” and the TVI % stood at 18%. Moreover, in series [1] (M109, 10 mg/kg p.o.), the “BWL % Max” value was found to be 10%, the ILS % was found to be 59%, the “MST (range days)” value is “**35 (27-42) days” and the TVI % entry is listed as “*49%”. In series [1] (M109, 15 mg/kg i.p.), the “BWL % Max” value is on record as 10%, the ILS % was found to be 64%, the “MST (range days)” value is given as “**36 (30-42) days” and the TVI % entry was “*46%”. The IC50 in series [2] turned out to be 0.24 µM.

(Values after US7449495B2, “Retinoid derivatives with antiangiogenic, antitumoral and proapoptotic activities” (Sigma-Tau Industrie Farmaceutiche Riunite S.p.A., priority 2001, dated 2008).)
